# Experimental data taken from patent US6872712B1, “Cyclic glycerophosphates and analogs thereof” (Yeda Research and Development Co. Ltd., priority 1999, dated 2005).
# Assays:
# [1] = system: intracellular proteins of target cells (CHO and NIH-3T3 cells); assay: Phosphorylation of intracellular proteins of target cells (general statements); format: cell-based
# Experimental: In accordance with the invention, the phosphorylating activity of the CGs may be measured by any of the methods known in the art. Generally, following incubation of the CG with the target cells, the cells are lysed, the protein concentration in each sample is determined and the level of phosphorylation of the proteins is determined using known methods and suitable and available polyclonal or monoclonal antibodies. Typically, phosphorylation occurs on the tyrosine residues of the protein and such phosphorylation is determined using either polyclonal or monoclonal anti phosphotyrosine antibodies (such as those described below in the Examples). However, in some cases, phosphorylation occurs on the threonine or serine components of the proteins in which case polyclonal or monoclonal anti phosphothreonine or anti phosphoserine antibodies may be used.
# (§1) The cyclic phosphates 1,3 cGP, 1,3 cPP, 1,2 cGP, 1,2 cPP, P-1,3 cGP and P-1,3 cPP and the controls αGP and βGP were dissolved in HBSS, or methanol to form stocks of 1 mM or 10 mM. […] The protein concentration in each sample, as evaluated by the Bradford assay, was in the range of 1-1.5 mg/ml. […] Bound antibodies were detected by horseradish peroxidase-conjugated anti-rabbit antibodies (Transduction Laboratories, Lexington Ky.) after 2 hours incubation at room temperature, using the conventional ECL detection method. […]
# cell lysate phosphatases = assay: Inhibition of phosphatase activity of cell lysate (PNPP substrate); format: biochemical; conditions: 50 μM, 50 mM PNPP, 90 minutes at 37° C., pH 7.4
# Experimental: Inhibition of phosphatase activity of cell lysate by cyclic phosphates was assayed in 1.0 ml of 50 mM Tris-HCl buffer, pH 7.4, containing 50 mM p-nitrophenyl phosphate, PNPP, as a substrate. Reaction was initiated by the addition of crude cell lysate (100 μg/ml final protein concentration) and terminated after 90 minutes at 37° C. by an addition of 50 μl of 1M NaOH. […] Assays were conducted under the same conditions as above in the presence of 50 μM cyclic phosphate. The enzyme activity in the absence of inhibitor was taken as 100% activity.
# perforated CHO cells = assay: Intracellular binding in perforated CHO cells (displacement of 1,3-cP32P); design: species or system Chinese hamster; conditions: 20 μM 1,3-cP32P, 5 minutes at 4° C., increasing amounts of competitor (FIG. 9)
# Experimental: Radioactivity was scored after 2 washings with PBS at 4° C. as above. […] In this set of experiments the number of displaceable (i.e. specifically bound) ligands was estimated to be in the range of 10^7-10^8 per cell.
# [2] = Stability of cyclic phosphates in PBS / aqueous solution (TLC); format: physicochemical; conditions: 10 mg/ml in PBS, 37°, up to 24 hours
# Experimental: These possibilities were tested with the 4 cyclic phosphates (1,2 cGP, 1,3 cGP, 1,2 cPP and 1,3 cPPP (see Appendix A) in either aqueous solution or in cell lysates of CHO or NIH-3T3 cells (see Materials and Methods). 10 mg/ml cyclic phosphate in 1 ml of either PBS or PBS mixed with cell lysate (0.1 mg/ml protein) and incubated at 37° for up to 24 hours. Samples were tested at different times by thin layer chromatography on Silica gel 60 with n-propanol, concentrated ammonia, H2O (6:3:1 v/v/v). The Rr values for all 4 cyclic phosphates was in the range of 0.45-0.55 while α-GP and β-GP had Rf=0.14-0.16. This distinct difference allowed the qualitative detection of hydrolysis of the cyclic phosphate.
# [3] = Stability of cyclic phosphates in cell lysates (TLC); conditions: 10 mg/ml in PBS mixed with CHO or NIH-3T3 cell lysate (0.1 mg/ml protein), 37°, up to 24 hours
# Text: This distinct difference allowed the qualitative detection of hydrolysis of the cyclic phosphate.
# CHO cells = assay: Uptake of 32P labeled 1,3-cPP by CHO cells; format: cell-based, Chinese hamster; conditions: intact CHO cells, increasing amounts of unlabeled compound
# Experimental: After 2 washings with PBS the cells were disintegrated in 1 M NaOH and radioactivity was scored with a β counter. The insert presents the magnified uptake profile for short incubations (up to 2 minutes) where the intercept (0 time incubation) corresponded to approximately 3×10^6 molecules per cell, while at equilibrium (above 2 hours incubation) incorporation corresponded to approximately 2×10^8 molecules per cell.
# [4] = system: estrogen receptor (ER) in human ERmod T47D cells; assay: Estrogen receptor expression in T47D cells (immunostaining, score 0 to 4); format: cell-based; conditions: 1 μM, 7 days of incubation (FIG. 11)
# Experimental: Tumor cells were incubated for 7 days in the absence or presence of 1 μM of 1,3 cGP. On each of the noted days, cells were harvested by trypsinization, washed and fixed by dryng in air. The preparations were then peroxidased and protein blocked. Following this, the cells were labeled with first antibody (mouse-anti-human ER) for 30 mins. at room temperature (RT). After washing, cells were incubated with biotinylated second antibody for 10 min at RT. After washing, the cells were incubated with streptavidin conjugated to horse radish peroxidase and color reaction with the DAB reagent was performed. Background staining was done with hematoxylin (mayer) and the fixation process was completed with water, alcohol and finally xylene immersions. The slides were covered, sealed and examined by a pathologist in a blind fashion. Expression of the ER was scored on a scale of 0 to 4 pulses, where 4 pulses is the highest score.
# Raf1/MAPK cascade = assay: Immunoprecipitation kinase assays (Raf-1, MAPK); format: cell-based, Chinese hamster; conditions: CHO cells, 2 μM for 2 and 5 minutes (FIG. 6)
# Experimental: (§2) (v) Immunoprecipitation kinase assays. Raf-1 Activity was determined by immunoprecipitation with anti-Raf-1 C terminus antibodies (Santa Cruz Biotech, CA) using recombinant MEK1 as a substrate as previously described (Seger, 1994). Mitogen-activated protein kinase (MAPK) activity was determined by immunoprecipitation with anti-ERK2 C terminus antibodies (Santa Cruz Biotech, CA) using MBP as a substrate (Seger, 1994). Jun N-terminal kinase (JNK) activity was determined by purifying the JNK on a GST-Jun (1-97) column followed by phosphorylation (Hibi, 1993).
# (§3) The in-gel kinase assay in the presence of MBP was applied as described in Materials and Methods above to detect stimulation of protein kinases by the cyclic phosphates. CHO cells were treated either with medium (0 control), or with 2 μM, α GP or β GP for 2 minutes, 2 μM […] for 2 and 5 minutes and […] 1,3-cPP for 2 minutes after which the cells were lysed and analyzed.
# (§4) Their apparent molecular weights were around MW of 35-40, 55 and 62 kD. The 35-40 kD protein kinase which was activated by 1,3-cGP (E) could be assigned to the P42 MAPK (ERK 2). In addition, cells were treated as described above and then subjected to Raf-1, MAPK and IP kinase assays and these are presented in the first and second rows of FIG. 6. In parallel, JNK assay was performed (third row, […]).
# [5] = system: Jun N-terminal kinase (JNK); assay: JNK assay (GST-Jun substrate); format: cell-based, Chinese hamster; conditions: CHO cells, 2 μM for 2 and 5 minutes (FIG. 6)
# Experimental: as §2, §4
# [6] = system: protein kinases of CHO cells (P42 MAPK (ERK 2)); assay: In-gel kinase assay in the presence of MBP; format: cell-based, Chinese hamster; conditions: 2 μM for 2 and 5 minutes (FIG. 6)
# Experimental: Phosphorylated cell proteins were separated by SDS-PAGE using a gel that was copolymerized with MBP (0.5 mg/ml) and treated as described (Karunuguran et al., EMBO J. 15:254-264, 1996). After electrophoresis, the gel was fixed with isopropanol and denatured using 6M Urea. Renaturation was achieved by gradual removal of the excess of urea followed by extensive washings in a renaturing buffer (16 h, 4° C.) and in a buffer containing […] HEPES pH 7.6, and 20 mM MgCl2 (30 min, 30° C.). The gel was then subjected to phosphorylation in a buffer containing 20 mM HEPES pH 7.6, 20 mM MgCl2, 2 mM DTT, 20 μM ATP and […] [y^32P]-ATP (30° C. for 120 min). Finally the gel was extensively washed, dried, and subjected to autoradiography.
# as §3
# [7] = system: tyrosine phosphorylated proteins in CHO cells; assay: Tyrosine phosphorylation in CHO cells (Western blot with anti-phosphotyrosine antibodies); format: cell-based, Chinese hamster; conditions: CHO cells, 5 μM or 10 μM, 37° C., 1, 3 or 5 mins, monoclonal antibodies; bands about 35, 60-70, 120 and 38 kD (FIG. 4)
# Experimental: Chinese hamster ovary (CHO) cells (Puck, 1985; Gottesman, 1987) and NIH-3T3 cells (NIH), were used in the following experiments. CHO cells were grown at 37° C. in a humidified 5% CO2 atmosphere in 60×15 mm Petri dishes (Falcon) containing F12 medium supplemented with 10% fetal calf serum (FCS) and 2 mM glutamine. When reaching near confluence, the cells were placed under overnight starvation by replacing the medium to F12+2 mM glutamine with 0.1% FCS. The stimulation experiments were performed with cells which were under starvation for 12-18 hours.
# as §1, with “mM. They were diluted into the cell culture medium to a final concentration of up to 20 μM. At the assigned stimulation time (0.5-20 min.) the medium was aspirated under vacuum and the cells were washed 3 times with cold (4° C.) phosphate buffered saline (PBS).” for “mM.”
# insulin receptor = assay: Tyrosine phosphorylation of the insulin receptor in CHO-T cells; format: cell-based; conditions: 20 mins
# Experimental: Group 4: 0.1 μM 1,3, cPP only.
# Tyrosine phosphorylation was determined using anti-phosphotyrosine antibody (as described above).
molecule,measurement,setting,value
"O=P(O)(O)OC(CO)CO [βGP, β-Glycerophosphate]",level of phosphorylation in intracellular proteins after extracellular application,[1],lack this activity
"O=P1(O)OCC(O)CO1 (stereo not drawn) [1,3 cGP, 1,3 cyclic glycerophosphate]",inhibition of cell lysate phosphatase activity,cell lysate phosphatases,approximately 10%
same,"displacement of 1,3-cP32P in perforated CHO cells",perforated CHO cells,clear binding competition
same,hydrolysis to the linear form in PBS,[2],No hydrolysis
same,hydrolysis to the linear form by cell lysate,[3],No hydrolysis
same,"effect of unlabeled competitor on the uptake profile of 1,3-cP32P",CHO cells,remained essentially unaltered
same,level of expression of estrogen receptor (ER) versus growth medium alone,[4],increases
same,level of expression of estrogen receptor (ER) versus growth medium alone,"[4]; listed as 1,3, cGP",significantly higher
"O=P1(O)OCC(O)CO1 (stereo not drawn) [1,3 cGP(E)]",inhibition of the lysate phosphatases (in words),cell lysate phosphatases,limited inhibition
same,activation of the Raf1/MAPK cascade,Raf1/MAPK cascade,≤ 5 fold
same,effect on the JNK pathway,[5],unaffected
same,"stimulation of 35-40 kD protein kinase (P42 MAPK, ERK 2)",[6],activated
"O=P(O)(O)OCC(O)CO (stereo in doubt) [αGP, L-α-glycerophosphate, reference compound]",level of phosphorylation in intracellular proteins after extracellular application,[1],lack this activity
same,"displacement of 1,3-cP32P in perforated CHO cells",perforated CHO cells,ineffective
"CC1COP(=O)(O)O1 (stereo not drawn) [1,2 cPP, 1,2 cyclic propanediol phosphate]",kinetics of tyrosine phosphorylation,[7],enhanced tyrosine phosphorylation
same,hydrolysis to the linear form in PBS,[2],No hydrolysis
same,hydrolysis to the linear form by cell lysate,[3],No hydrolysis
"O=P1(O)OCC(CO)O1 (stereo not drawn) [1,2 cGP, 1,2 cyclic glycerophosphate]",hydrolysis to the linear form in PBS,[2],No hydrolysis
same,hydrolysis to the linear form by cell lysate,[3],No hydrolysis
insulin: hormone; binding to its receptor results in tyrosine phosphorylation of 117 kD and 200 kD receptor proteins,phosphorylation of the insulin receptors,insulin receptor; 0.1 nM insulin,partial phosphorylation
same,phosphorylation of the insulin receptors,insulin receptor; 1 nM insulin,maximal phosphorylation
